A short description of the data set: Biodistribution studies of [18F]-9 in normal mice. In kind it is in vivo. The following applies: for Blood uptake / Bone uptake / Brain uptake / Heart uptake / Kidney uptake / Liver uptake / Lung uptake: tail-vein injection. The procedure:
Uptake in brain and other critical organs was analyzed in terms of percent injected dose per gram of the tissue (%ID/g) SI Table 1. For in vivo imaging of Aβ plaques, the basic pharmacokinetic model in normal brains involves a high initial penetration of the agent, accompanied by facile clearance due to lack of a binding target. […] For comparison, brain uptake ratios of [^18F]-AV-45 (2 min/2 h) and [^18F]-Florbetaben (2 min/4 h) in normal mice are 4.07 (%ID/g (brain): 2 min: 7.33 ± 1.54; 2 h: 1.80 ± 0.07; 7.33/1.80; 4.07)[10] and 5.0 (%ID/g (brain): 2 min: 4.77; 4 h: 0.95; 4.77/0.95; 5.02)[46], respectively. […] For an agent to be able to serve as an Aβ-imaging agent, literature precedents indicate that brain uptake ratio (%ID/g; the earliest time–point; 2–5 min to that of the latest time point; typically for carbon-11; 30–60 min; and F-18, 2 h) of 3.5 or above could be considered as a benchmark for ability of a given agent to cross the blood-brain barrier. Additionally, the brain uptake of a given imaging agent is also a net function of several components, such as cerebral regional blood flow, BBB permeability, plasma radiotracer concentration, and free fractions of the radiotracer in plasma and in the brain. Furthermore, the lipophilicity of a given compound also reflects a critical physicochemical trait for neuroimaging radiotracers due to its direct relationship to membrane permeability, solubility in water, and entropic contribution to binding. Literature precedents indicate that lipophilic drugs readily cross the BBB, although other chemical characteristics, including the number of hydrogen bonds, molecular weight, polar surface area and molecular size are also known to be critical traits for passive transport. […] Conversely, radiotracers that are too lipophilic can also bind plasma proteins, undergo fast metabolism, while also contributing to high nonspecific binding, such as white matter. […] Additionally, the agent [^18F]-9 excreted from other critical organs over 2 h (SI, Table 1); a critical factor likely to result in favorable dosimetry; although slight defluorination as a function of time is also evident from bone accumulation; yet consistent with pharmacokinetic profiles of other FDA approved agents. For assessing directly the ability of radiotracer to traverse the BBB, [^18F]-9 (170 μCi) was injected into a 24 months old APP/PS1 transgenic mouse and its age-matched WT counterpart, and 30 min post tail-vein injection, the brains were removed, frozen, and sectioned for autoradiography (Fig. 7A–E). […] For ROI analysis of the PET signal in brain section autoradiograms of transgenic mouse (Fig. 7A) and its WT counterpart (Fig. 7D), we used measured count densities in cortex and amygdala target regions and compared them with that of hypothalamus as reference region with a low plaque density as determined by Aβ immunostaining (Fig. 7B). The target/reference ratio (mean ± SD) in the transgenic mouse was 1.88 ± 0.22 compared to 0.96 ± 0.12 in the WT control mouse (Fig. 7E). Since brain stem was also devoid of plaques, we also analyzed the above target regions using brain stem as a reference region, and observed target/reference value in the transgenic to be 0.89 ± 0.1 compared to 0.45 ± 0.07 in the WT mouse. […]
The count intensity (expressed as quantitative light unit (QL)/pixel2) was measured for each ROI after background subtraction, and target/reference ratios for Tg and WT brain were used to compare radiotracer uptake. The final figure was assembled in Adobe Photoshop CS3.
All animal procedures were approved by the Washington University Animal Studies Committee (Protocol # 20150147; Expiration 7/31/18). Thus, biodistribution studies were carried out in "accordance" with the approved guidelines. Pharmacokinetics of 18F-9 in brain and other critical tissues of normal male 12 week old BL6 (WT; 28-36 g) mice were determined as previously described 15. Briefly, 18F-9 (740 kBq) was […]

Experimental findings from paper PMC5090206, “Fluselenamyl: A Novel Benzoselenazole Derivative for PET Detection of Amyloid Plaques (Aβ) in Alzheimer’s Disease” (Scientific Reports, 2016) are described below.

Regarding `CN(C)c1ncc(/C=C\c2nc3cc(OCC[18F])ccc3[se]2)cn1` [[^18F]-9], the “brain uptake clearance ratio superior to [18F]-AV-45” value (healthy mice, 2 min/120 min) came out at 1.3 fold. Also, for the setting “normal mice”, the “brain clearance ratio (%ID/g) 2 min/120 min” value was 5.33. For the setting “normal mice, 2 min”, the Blood uptake turned out to be 4.79 ± 0.33 % ID/g, the Bone uptake turned out to be 1.15 ± 0.15 % ID/g, the Brain uptake is listed as 8.86 ± 0.32 % ID/g and the Heart uptake is 8.56± 0.78 % ID/g. For the same compound, under “normal mice, 2 min”, the Kidney uptake is recorded as 14.93± 0.85 % ID/g, the Liver uptake was determined as 35.44 ± 2.52 % ID/g and the Lung uptake is 10.07± 0.74 % ID/g. Besides, under “normal mice, 60 min”, the Blood uptake stood at 2.27 ± 0.06 % ID/g, the Bone uptake is 3.88 ± 1.48 % ID/g, the Brain uptake was 1.80 ± 0.02 % ID/g and the Heart uptake turned out to be 2.15 ± 0.02 % ID/g. Where the note is “normal mice, 60 min”, this compound registered a Kidney uptake of 2.52 ± 0.06 % ID/g, a Liver uptake of 8.64 ± 0.15 % ID/g and a Lung uptake of 2.23 ± 0.11 % ID/g. Where the note is “normal mice, 120 min”, the Blood uptake was found to be 2.16 ± 0.03 % ID/g, the Bone uptake is reported as 6.08 ± 0.85 % ID/g, the Brain uptake amounted to 1.66 ± 0.01 % ID/g and the Heart uptake is on record as 1.92 ± 0.05 % ID/g. For the setting “normal mice, 120 min”, the Kidney uptake is recorded as 2.12 ± 0.09 % ID/g, the Liver uptake was found to be 8.13 ± 0.12 % ID/g and the Lung uptake was 1.98 ± 0.05 % ID/g.
